Assay [1] concerns Mycobacterium tuberculosis. Put plainly: Antimycobacterial activity against Mycobacterium tuberculosis H37Rv. Format: functional. To be noted: Mycobacterium tuberculosis, H37Rv; read-out: MIC.
In assay [2] the test system is Mycobacterium tuberculosis. Description: Antimycobacterial activity against Mycobacterium tuberculosis H37Ra. Format: functional.

In brackets after ≈: the same amount, converted by molar mass.

In the case of `CC1=C(C)C(=O)C(CC[C@](C)(O)CCC[C@H](C)CCC[C@H](C)CCCC(C)C)=C(C)C1=O`, in assay [1], the MIC was 25 µg/mL. The same measure, in the same setting: next, `O=C1c2c(O)ccnc2-c2nccc3c2c1nc1ccccc13`: 42 µM. On to `O=C(/C=C/C=C/CC/C=C/c1ccc2c(c1)OCO2)N1CCCC1`, for which the MIC in assay [2] is 25 µg/mL (≈ 76.8 µM). Still for that read-out and setting: next, `COc1cc2oc(C)cc(=O)c2c(O)c1CC=C(C)C`: 50 µg/mL (≈ 182 µM). As for `CC(C)=CCc1c(O)cc(O)c(C(=O)/C=C/c2ccccc2)c1O`, the MIC in assay [1] stood at 0.05 µg/mL. Still for that read-out and setting: then `CC(C)=CCc1c(O)ccc(C(=O)/C=C/c2cc(O)c3c(c2)C=CC(C)(C)O3)c1O`, with 30 µg/mL; and `CC1(C)Oc2cc(O)c(C(=O)/C=C/c3ccccc3)c(O)c2CC1O` (centres undefined), with 0.05 µg/mL. On the same count and under the same terms, then `CCOC(=O)/C=C/COc1ccc(/C=C/C(=O)/C=C(O)/C=C/c2ccc(OC/C=C/C(=O)OCC)c(OC)c2)cc1`, with 7.18 µg/mL.

In assay [2], `CO[C@H]1CC(=O)c2c(O)cccc2[C@H]1O` displayed an MIC of 12.5 µg/mL (≈ 60 µM). On the same count and under the same terms, next, `COc1cc(O)c2c(c1)[C@H](O)[C@@H](OC)CC2=O`: 25 µg/mL (≈ 105 µM); `COC1=CC(=O)c2c(cc(OC)c(C(C)C3=C(O)C(=O)c4cc(O)cc(O)c4C3=O)c2O)C1=O` (centres undefined): 6.25 µg/mL (≈ 13.4 µM). `CCc1c(OC)cc2c(c1O)C(=O)C=C(OC)C2=O` yielded an MIC in assay [2] of 12.5 µg/mL (≈ 47.7 µM). Consider `COC1=CC(=O)c2cccc(O)c2C1=O`, for which the MIC in assay [1] came out at 3.12 µg/mL. The same measure, in the same setting: then `CC(=O)[C@]1(O)C(C)=C(C)C(=O)[C@@]12CC[C@](C)(CCC[C@H](C)CCC[C@H](C)CCCC(C)C)O2`, with 30 µg/mL. Still for that read-out and setting: next, `CC(=O)[C@]1(O)C(C)=C(C)C(=O)[C@@]12CC[C@H](CCC[C@H](C)CCC[C@H](C)CCCC(C)C)O2`: 50 µg/mL. Take `COc1ccc([C@@]23Oc4cc(OC)cc(OC)c4[C@@](O)(C2O)[C@@H](C(=O)NCCCCNC(=O)c2ccccc2)[C@@H]3c2ccccc2)cc1` (some centres undefined): the MIC in assay [2] came out at 25 µg/mL (≈ 38.3 µM). In assay [2], `CCCC/C=C/C#CC#CC(C)CCCCCCC(=O)O` (centres undefined) registered an MIC of 25 µg/mL (≈ 86.7 µM).

As to `CCCC/C=C/C#CC#CCCCCCCCC(=O)OCC(O)CO` (centres undefined), the MIC in assay [2] was found to be 25 µg/mL (≈ 71.7 µM). For the molecule `COc1ccc(CC(O)C(O)Cc2ccccc2)cc1` (centres undefined), the MIC in assay [1] was found to be 30 µg/mL. As for `CC(C)C1=C(O)C(=O)C2=C(C1=O)[C@H](O)[C@@H](O)[C@H]1C(C)(C)CCC[C@]21C`, the MIC in assay [1] amounted to 25 µg/mL.

Turning to `CC(=O)O[C@H]1C2=C(C(=O)C(O)=C(C(C)C)C2=O)[C@@]2(C)CCCC(C)(C)[C@@H]2[C@@H]1O`, in assay [1], the MIC turned out to be 25 µg/mL.

As to `C=C(C)C(CC[C@@H](C)[C@H]1CC[C@@]2(C)[C@@H]3CC[C@H]4C(C)(C)[C@@H](O)CC[C@@]45C[C@@]35CC[C@]12C)OO` (some centres undefined), in assay [1], the MIC is 25 µg/mL. Turning to `C[C@H](C/C=C/C(C)(C)OO)[C@H]1CC[C@@]2(C)[C@@H]3CC[C@H]4C(C)(C)[C@@H](O)CC[C@@]45C[C@@]35CC[C@]12C`, the MIC in assay [1] amounted to 25 µg/mL. `COc1c(-c2ccc(O)cc2)oc2c3c(ccc2c1=O)OC(C)(C)[C@H](OC(C)=O)[C@@H]3OC(C)=O`: the MIC in assay [2] was determined as 25 µg/mL (≈ 53.4 µM). The same measure, in the same setting: next, `COc1ccc2c(=O)c3c(oc2c1)-c1cc2c(cc1CO3)OCO2`: 6.25 µg/mL (≈ 19.3 µM); `C=C(C)C(=O)O[C@H]1C[C@@]2(C)OC(=CC2=O)C(=C)[C@H](O)[C@H]2OC(=O)C(=C)[C@@H]21`: 3.1 µg/mL (≈ 8.6 µM). On the same count and under the same terms, next, `C=C1C(=O)O[C@H]2[C@H]1[C@@H](OC(=O)/C(C)=C\C)C[C@@]1(C)OC(=CC1=O)C(=C)[C@@H]2O`: 3.1 µg/mL (≈ 8.28 µM); `C=C1C(=O)O[C@@H]2/C=C(\C(=O)O)CC/C=C(\C)CC[C@@H]12`: 50 µg/mL (≈ 191 µM). As for `CC(C)C1=C(O)C(=O)C2=C(C=C[C@H]3C(C)(C)CCC[C@]23C)C1=O`, the MIC in assay [1] was found to be 25 µg/mL.

Regarding `COc1cc(-c2ccccc2)nc2ccccc12`, in assay [1], the MIC was 16 µg/mL. Take `COC1=CC(=O)c2c(O)cccc2C1=O`: in assay [1], the MIC was found to be 30 µg/mL. `O=C1CC[C@H](O)c2cc(O)cc(O)c21`: the MIC in assay [2] was found to be 12.5 µg/mL (≈ 64.4 µM).

The molecule `COc1cc2c(cc1OC)-c1c3c(cc4c1[C@@H](C2)NCC4)OCO3` returned an MIC in assay [2] of 12.5 µg/mL (≈ 38.4 µM). For the molecule `C[C@@H]1C[C@H](C)C(=O)/C=C/C2[C@@H](O)C3OC4=C(C(=O)O[C@@]42C[C@H]3C)C1=O` (single isomer, unassigned; (-)), the MIC in assay [1] was 7.2 µM. With `COc1ccc2c(=O)c(OC)c(-c3ccccc3)oc2c1` [3,7-DIMETHOXYFLAVONE], in assay [2], inhibition of growth (MIC) required 50 µg/mL (≈ 177 µM). On the same count and under the same terms, next, `O=C1C=C[C@@H]2O[C@H](c3ccccc3)[C@@H](O)[C@@H]2O1` [ALTHOLACTONE]: 6.25 µg/mL (≈ 26.9 µM).

Consider `C=C[C@]1(C)C2=C3c4c([nH]c5cccc(c45)C(C)(C)[C@H]3C[C@H]1Cl)C(C)(C)C(C#N)=C2` [AMBIGUINE G NITRILE], for which the MIC in assay [1] is 53.7 µM.

For the molecule `O=C(O)CCCCCCCCCC(=O)C1=CCCC1` [ANTHELMINTHICINS A], the MIC in assay [1] was 5.54 µM. Take `O=C(CCCCCCCC[C@H]1C=CCC1)OCC(O)CO` (some centres undefined) [ANTHELMINTHICINS B]: the MIC in assay [1] is 16.7 µM. In turn, `CC(=O)O[C@@H]1C[C@H]2C(C)(C)C(=O)C=C[C@]2(C)[C@H]2CC[C@]3(C)C(=CC(=O)[C@H]3c3ccoc3)[C@@]21C` [AZADIRADIONE] registered an MIC in assay [2] of 6.25 µg/mL (≈ 13.9 µM). In the case of `CC[C@H](CC[C@@H](C)[C@H]1CC[C@H]2[C@@H]3CC=C4CC(=O)CC[C@]4(C)[C@H]3CC[C@]12C)C(C)C` [BETA-SITOSTENONE], in assay [1], the MIC was determined as 39.5 µM. As to `C=C(C)[C@@H]1CC[C@]2(C(=O)O)CC[C@]3(C)[C@H](CC[C@@H]4[C@@]5(C)CC[C@H](O)C(C)(C)[C@@H]5CC[C@]43C)[C@@H]12` [BETULINIC ACID], the MIC in assay [2] was found to be 25 µg/mL (≈ 54.7 µM). With `O=C(O)CCCCCCCCCCCC[C@@H]1C=CCC1` [CHAULMOOGRIC ACID], the MIC in assay [1] is 16.8 µM. The same measure, in the same setting: then `c1cc2c[n+](c1)CCCCCCCCCCCCc1ccc[n+](c1)CCCCCCCCCCCC2` [CYCLOSTELLETAMINES A], with 32 µg/mL. Same read-out and setting: next, `c1cc2c[n+](c1)CCCCCCCCCCCCCc1ccc[n+](c1)CCCCCCCCCCCC2` [CYCLOSTELLETAMINES B]: 4 µg/mL. On the same count and under the same terms, then `c1cc[n+]2c(c1)CCCCCCCCCCCCC[n+]1cccc(c1)CCCCCCCCCCCCC2` [CYCLOSTELLETAMINES C], with 4 µg/mL; and `c1cc2c[n+](c1)CCCCCCCCCCCCCCc1ccc[n+](c1)CCCCCCCCCCCC2` [CYCLOSTELLETAMINES D], with 8 µg/mL; and `c1cc2c[n+](c1)CCCCCCCCCCCCCCc1ccc[n+](c1)CCCCCCCCCCCCC2` [CYCLOSTELLETAMINES E], with 11 µg/mL. `c1cc2c[n+](c1)CCCCCCCCCCCCCCc1ccc[n+](c1)CCCCCCCCCCCCCC2` [CYCLOSTELLETAMINES F]: in assay [1], the MIC came to 8 µg/mL.

Turning to `COc1cc(/C=C/C(O)=C/C(=O)/C=C/c2ccc(O)cc2)ccc1O` [DEMETHOXYCURCUMIN], the MIC in assay [1] amounted to 200 µg/mL. Same read-out and setting: next, `COc1cc(C)c(C(=O)Oc2cc(C)c(C(=O)O)c(O)c2C)c(OC)c1C` [DIFFRACTAIC ACID]: 15.6 µg/mL; `[C-]#[N+]C(C)(C)C[C@@H]1C[C@H](C)[C@H]2CC[C@H](C)[C@@]3([N+]#[C-])CCC(=C)[C@@H]1[C@H]23` [DIISOCYANOAMPHILECTENE]: 2 µg/mL.

For the molecule `CSC1=C(CCNC(C)=O)c2nc3ccccc3c3ccnc(c23)C1=O` [DIPLAMINE], the minimal inhibitory concentration (MIC) in assay [1] stood at 17 µM. Consider `C=C(C)/C=C/[C@@]12C(=O)C=CC(=O)[C@@]13CC(C)=C[C@@H]2c1cc(O)ccc1O3` [EHRETIQUINONE], for which the MIC in assay [1] was found to be 25 µg/mL. Same read-out and setting: then `O=C1C2=C(C(=O)c3c(O)cccc31)[C@]1(O)C[C@H]2C(=O)c2c(O)cccc21` [ENGELHARQUINONE], with 20 µg/mL.

As to `CCc1cc(C(N)=S)ccn1` [ETHIONAMIDE], in assay [1], the MIC was determined as 18 µM.

Regarding `CCOC(=O)CCCCCCCCCCCC[C@@H]1C=CCC1` [ETHYL CHAULMOOGRATE], the MIC in assay [1] stood at 9.82 µM. Still for that read-out and setting: next, `COc1cc(-c2ccc3c(c2)OCO3)nc2ccccc12` [GRAVEOLININE]: 16 µg/mL; `CC(C)C1=C(O)C(=O)C2=C(C1=O)[C@H](O)C[C@H]1C(C)(C)CCC[C@]21C` [HORMINONE]: 25 µg/mL; `Cl.Nc1ncc(C/C=C/NC(=O)c2cc(Br)c[nH]2)[nH]1` [HYMENIDINE]: 6.1 µg/mL. Same read-out and setting: then `CC(C)=CCc1c(O)ccc(C(=O)/C=C/c2ccc(O)cc2)c1O` [ISOBAVACHALCONE], with 18 µg/mL; and `CSc1cnc2c3c(nc4ccccc4c13)C(CCNC(C)=O)=CC2=O` [ISODIPLAMINE], with 17 µM; and `COc1c2ccoc2nc2c3c(ccc12)OCO3` [KOKUSAGINE], with 16 µg/mL.

Regarding `O=C1c2scnc2-c2nccc3c2c1nc1ccccc13` [KUANONIAMINE A], the MIC in assay [1] stood at 10.7 µM. The same measure, in the same setting: then `CC(=O)NCCc1c2c3c(ccnc3c3ncsc13)-c1ccccc1N2` [KUANONIAMINE D], with 34 µM.

For `CC(=O)NCCc1c2c(c3nccc4c3c1Nc1ccccc1-4)OCS2` [LISSOCLINIDINE], the MIC in assay [1] worked out at 17 µM. On the same count and under the same terms, next, `[C-]#[N+][C@@]12CCC(=C)[C@H]3[C@H](CC(C)(C)NC(=O)CN4CCC4=O)C[C@H](C)[C@@H](CC[C@@H]1C)[C@@H]32` [MONAMPHILECTINE A]: 15.3 µg/mL. The same measure, in the same setting: next, `NC1=N[C@@]23CCCN2C(=O)c2[nH]cc(Br)c2[C@@H]3N1` [MONOBROMOISOPHAKELLIN]: 64 µg/mL; `C/C=C(/NC(=O)c1csc(-c2csc(-c3ccc4c(n3)-c3csc(n3)C(C(C)(O)C(C)O)NC(=O)c3csc(n3)C(C(C)C)NC(=O)c3csc(n3)/C(=C/OC)NC(=O)C(C(C)O)NC(=O)c3csc-4n3)n2)n1)C(=O)OC` (centres undefined) [NOCARDITHIOCIN]: 0.025 µg/mL. Same read-out and setting: next, `CCCCCCC1=C(O)CC(CCCCC)OC1=O` (centres undefined) [PSEUDOPYRONINES A]: 3.12 µg/mL; `COc1cc2ccc(=O)oc2cc1O` [SCOPOLETIN]: 42 µg/mL. For the molecule `CC(=O)NCCc1c2c(c3nccc4c3c1Nc1ccccc1-4)NC(=O)CS2` [SHERMILAMINE B], the MIC in assay [1] stood at 32 µM. On the same count and under the same terms, then `C/C=C(C)/C=C(\C)C(O)C(C)[C@H](O)[C@@H](O)[C@H]1C/C=C\C=C\[C@H](O)C[C@@H](O)[C@H](C)c2nc(cs2)/C=C(\CCCCCC)C(=O)O1` (some centres undefined) [THUGGACIN A], with 8 µg/mL; and `C/C(=C\CO)CCC[C@H](C)CCC[C@H](C)CCCC(C)C` [TRANS-PHYTOL], with 12.5 µg/mL.

Usually MIC stands for the lowest concentration found to suppress growth.
